Literature values in patent US10335367B2, “Use of selected anticholinergic zwitterions” (Bodor Laboratories, Inc., priority 2015, dated 2019).
Read-outs that look alike come from different tables or passages of the source.

Columns and labels:
progression of myopia = conditions: 2% ophthalmic gel; school-aged children

Row | SMILES | slowing the progression of myopia (progression of myopia) | mean myopia progression at 2 years (myopia progression; 0.01% atropine) [D/year] | mean myopia progression at 2 years (myopia progression; 0.1% atropine) [D/year] | mean myopia progression at 2 years (myopia progression; 0.5% atropine) [D/year]
1 | CN1CCN(CC(=O)N2c3ccccc3C(=O)Nc3cccnc32)CC1 [Pirenzepine] | found effective |  |  | 
2 | CN1[C@@H]2CC[C@H]1C[C@@H](OC(=O)C(CO)c1ccccc1)C2 (stereo partly shown) [atropine] |  | 0.24 | 0.19 | 0.15
